Reference: patent US12503471B2, “Triazatricycle compounds for the treatment of autoimmune disease” (Hoffmann-La Roche Inc., priority 2019, dated 2025)

Legend:
human TLR8 = biological target: T1, human TLR8 (Homo sapiens, UniProt Q9NR97); assay: HEK293-Blue-hTLR-8 cells assay; type: cell-based; conditions: HEK293-Blue-hTLR8 cells, R848 stimulation, 20 hrs, SEAP reporter; read-out: HEK/hTLR8 IC50
T1 construct: host or cells: HEK293 (HEK-Blue hTLR8)
T1 sequence (Q9NR97 27-1041): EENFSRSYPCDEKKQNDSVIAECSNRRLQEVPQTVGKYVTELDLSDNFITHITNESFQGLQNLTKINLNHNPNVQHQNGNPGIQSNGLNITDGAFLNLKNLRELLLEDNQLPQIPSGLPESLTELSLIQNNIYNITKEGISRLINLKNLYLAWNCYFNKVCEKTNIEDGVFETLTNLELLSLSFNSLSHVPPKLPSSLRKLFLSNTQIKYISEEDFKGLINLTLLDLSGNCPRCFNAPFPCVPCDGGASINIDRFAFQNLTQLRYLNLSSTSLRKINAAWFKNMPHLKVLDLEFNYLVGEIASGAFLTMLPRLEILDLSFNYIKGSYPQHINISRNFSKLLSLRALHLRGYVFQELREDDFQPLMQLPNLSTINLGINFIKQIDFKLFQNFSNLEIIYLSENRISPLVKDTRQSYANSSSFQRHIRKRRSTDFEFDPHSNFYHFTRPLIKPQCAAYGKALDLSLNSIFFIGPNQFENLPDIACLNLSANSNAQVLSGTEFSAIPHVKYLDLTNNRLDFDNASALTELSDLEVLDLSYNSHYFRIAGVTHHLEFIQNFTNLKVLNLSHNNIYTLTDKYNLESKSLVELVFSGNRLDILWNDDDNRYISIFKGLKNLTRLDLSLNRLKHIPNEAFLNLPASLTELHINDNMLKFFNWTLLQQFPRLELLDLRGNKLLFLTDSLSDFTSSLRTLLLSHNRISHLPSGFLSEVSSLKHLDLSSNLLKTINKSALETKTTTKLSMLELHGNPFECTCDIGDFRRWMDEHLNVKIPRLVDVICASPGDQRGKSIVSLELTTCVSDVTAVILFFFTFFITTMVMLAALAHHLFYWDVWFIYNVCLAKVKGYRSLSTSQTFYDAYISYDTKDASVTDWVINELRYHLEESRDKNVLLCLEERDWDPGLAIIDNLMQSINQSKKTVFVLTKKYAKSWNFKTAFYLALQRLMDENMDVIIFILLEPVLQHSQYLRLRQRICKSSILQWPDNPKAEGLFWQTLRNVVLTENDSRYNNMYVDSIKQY
Text: HEK293-Blue-hTLR-8 Cells Assay:
A stable HEK293-Blue-hTLR-8 cell line was purchased from InvivoGen (Cat. #: hkb-htlr8, San Diego, Calif., USA). These cells were originally designed for studying the stimulation of human TLR8 by monitoring the activation of NF-κB. A SEAP (secreted embryonic alkaline phosphatase) reporter gene was placed under the control of the IFN-β minimal promoter fused to five NF-κB and AP-1-binding sites. The SEAP was induced by activating NF-κB and AP-1 via stimulating HEK-Blue hTLR8 cells with TLR8 ligands. Therefore the reporter expression was declined by TLR8 antagonist under the stimulation of a ligand, such as R848, for incubation of 20 hrs. The cell culture supernatant SEAP reporter activity was determined using QUANTI-Blue™ kit (Cat. #: rep-qbl, Invivogen, San Diego, Ca, USA) at a wavelength of 640 nm, a detection medium that turns purple or blue in the presence of alkaline phosphatase.
HEK293-Blue-hTLR8 cells were incubated at a density of 250,000˜450,000 cells/mL in a volume of 170 μL in a 96-well plate in Dulbecco's Modified Eagle's medium (DMEM) containing 4.5 g/L glucose, 50 U/mL penicillin, […], […], 2 mM L-glutamine, 10% (v/v) heat-inactivated fetal bovine serum with addition of 20 μL test compound in a serial dilution in the presence of final DMSO at 1% and 10 μL of 60 uM R848 in above DMEM, perform incubation under 37° C. in a CO2 incubator for 20 hrs. Then 20 μL of the supernatant from each well was incubated with 180 μL Quanti-blue substrate solution at 37° C. for 2 hrs and the absorbance was read at 620-655 nm using a spectrophotometer. The signaling pathway that TLR8 activation leads to downstream NF-κB activation has been widely accepted, and therefore similar reporter assay was modified for evaluating TLR8 antagonist.

[1] = Human microsomal stability assay; type: in vitro ADME; conditions: human liver microsomes, 1 μM test compound, 0.5 mg/mL protein, 37° C., pH 7.4
Experimental: Human Microsomal Stability Assay
Human liver microsomes (Cat.NO.: 452117, Corning, USA) were preincubated with test compound for 10 minutes at 37° C. in 100 mM potassium phosphate buffer, pH 7.4. The reactions were initiated by adding NADPH regenerating system. The final incubation mixtures contained 1 μM test compound, 0.5 mg/mL liver microsomal protein, 1 mM MgCl2, 1 mM NADP, 1 unit/mL isocitric dehydrogenase and 6 mM isocitric acid in 100 mM potassium phosphate buffer, pH 7.4. After incubation times of 0, 3, 6, 9, 15 and 30 minutes at 37° C., 300 μL of cold ACN (including internal standard) was added to 100 μL incubation mixture to terminate the reaction. Following precipitation and centrifugation, 100 uL supernatant will be taken out and added 300 uL water. The amount of compound remaining in the samples was determined by LC-MS/MS. Controls of no NADPH regenerating system at zero and 30 minutes were also prepared and analyzed. The results were categorized as: low (7.0 mL/min/kg), medium (7.0-16.2 mL/min/kg) and high (16.2-23.2 mL/min/kg).

SMILES	IC50 (human TLR8)	CL (h) [1]
[2H]c1ccc2c(N3C[C@@H](C)N4Cc5nc(N6CC[C@H]7CNC[C@H]76)ccc5[C@H]4C3)ccc(C#N)c2n1 [Example 10, 5-[(2S,6R)-11-[(3aS,6aS)-3,3a,4,5,6,6a-hexahydro-2H-pyrrolo[2,3-c]pyrrol-1-yl]-6-methyl-4,7,10-triazatricyclo[7.4.0.02,7]trideca-1(9),10,12-trien-4-yl]-2-deuterio-quinoline-8-carbonitrile]	< 300 pM	
[2H]c1ccc2c(N3C[C@@H](C)N4Cc5nc(N6CC[C@H](N)[C@@H](OC)C6)ccc5[C@H]4C3)ccc(C#N)c2n1 [Example 12, 5-[(2S,6R)-11-[(3S,4S)-4-amino-3-methoxy-1-piperidyl]-6-methyl-4,7,10-triazatricyclo[7.4.0.02,7]trideca-1(9),10,12-trien-4-yl]-2-deuterio-quinoline-8-carbonitrile]	< 300 pM	
[2H]c1ccc2c(N3C[C@@H](C)N4Cc5nc(N6C[C@@H]7C[C@H]6CN7)ccc5[C@H]4C3)ccc(C#N)c2n1 [Example 16, 2-Deuterio-5-[(2S,6R)-11-[(1S,4S)-2,5-diazabicyclo[2.2.1]heptan-2-yl]-6-methyl-4,7,10-triazatricyclo[7.4.0.02,7]trideca-1(9),10,12-trien-4-yl]quinoline-8-carbonitrile]	400 pM	6.2 mL/min/kg
[2H]c1ccc2c(N3C[C@@H](C)N4Cc5nc(N6CC[C@](C)(N)C6)ccc5[C@H]4C3)ccc(C#N)c2n1 [Example 8, 5-[(2S,6R)-11-[(3S)-3-amino-3-methyl-pyrrolidin-1-yl]-6-methyl-4,7,10-triazatricyclo[7.4.0.02,7]trideca-1(9),10,12-trien-4-yl]-2-deuterio-quinoline-8-carbonitrile]	< 300 pM	6.2 mL/min/kg
[2H]c1ccc2c(N3C[C@@H](C)N4Cc5nc(N6CC[C@@H](OC)[C@H](N)C6)ccc5[C@H]4C3)ccc(C#N)c2n1 [Example 15, 5-[(2S,6R)-11-[(3R,4R)-3-amino-4-methoxy-1-piperidyl]-6-methyl-4,7,10-triazatricyclo[7.4.0.02,7]trideca-1(9),10,12-trien-4-yl]-2-deuterio-quinoline-8-carbonitrile]	< 300 pM	
N#Cc1ccc(N2CCN3Cc4nc(N5CCNCC5)ccc4[C@@H]3C2)c2cccnc12 [Example 3A, 5-[(2R)-11-piperazin-1-yl-4,7,10-triazatricyclo[7.4.0.02,7]trideca-1(9),10,12-trien-4-yl]quinoline-8-carbonitrile]	500 pM	8.4 mL/min/kg
C[C@@H]1CN(c2ccc(C#N)c3ncccc23)C[C@@H]2c3cnc(N4CCNCC4)cc3CN12 [Example 2, 5-[(2S,6R)-6-methyl-11-piperazin-1-yl-4,7,12-triazatricyclo[7.4.0.02,7]trideca-1(9),10,12-trien-4-yl] quinoline-8-carbonitrile]	400 pM	6.2 mL/min/kg
C[C@@H]1CN(c2ccc(C#N)c3ncccc23)C[C@@H]2c3ccc(N4CCNCC4)nc3CN12 [Example 5, 5-[(2S,6R)-6-methyl-11-piperazin-1-yl-4,7,10-triazatricyclo[7.4.0.02,7]trideca-1(9),10,12-trien-4-yl]quinoline-8-carbonitrile]	< 300 pM	8.1 mL/min/kg
CC1(N)CCN(c2ccc3c(n2)CN2CCN(c4ccc(C#N)c5ncccc45)C[C@@H]32)CC1 [Example 4A, 5-[(2R)-11-(4-amino-4-methyl-1-piperidyl)-4,7,10-triazatricyclo[7.4.0.02,7]trideca-1(9),10,12-trien-4-yl]quinoline-8-carbonitrile]	1900 pM	8.9 mL/min/kg
[2H]c1ccc2c(N3C[C@@H](C)N4Cc5nc(N6CC[C@H](OC)[C@@H](N)C6)ccc5[C@H]4C3)ccc(C#N)c2n1 [Example 14, 5-[(2S,6R)-11-[(3S,4S)-3-amino-4-methoxy-1-piperidyl]-6-methyl-4,7,10-triazatricyclo[7.4.0.02,7]trideca-1(9),10,12-trien-4-yl]-2-deuterio-quinoline-8-carbonitrile]	< 300 pM	

Further lines, results first:

IC50 (human TLR8)	CL (h) [1]	SMILES
< 300 pM		[2H]c1ccc2c(N3C[C@@H](C)N4Cc5nc(N6C[C@H]7C[C@@H]6CN7)ccc5[C@H]4C3)ccc(C#N)c2n1 [Example 17, 2-Deuterio-5-[(2S,6R)-11-[(1R,4R)-2,5-diazabicyclo[2.2.1]heptan-2-yl]-6-methyl-4,7,10-triazatricyclo[7.4.0.02,7]trideca-1(9),10,12-trien-4-yl]quinoline-8-carbonitrile]
3600 pM	6.6 mL/min/kg	C[C@@H]1CN(c2ccc(C#N)n3nccc23)C[C@@H]2c3ccc(N4C[C@@H]5C[C@H]4CN5)nc3CN12 [Example 21, 4-[(2S,6R)-11-[(1S,4S)-2,5-diazabicyclo[2.2.1]heptan-2-yl]-6-methyl-4,7,10-triazatricyclo[7.4.0.02,7]trideca-1(9),10,12-trien-4-yl]pyrazolo[1,5-a]pyridine-7-carbonitrile]
< 300 pM		[2H]c1ccc2c(N3C[C@@H](C)N4Cc5nc(O[C@H]6CCNC6)ccc5[C@H]4C3)ccc(C#N)c2n1 [Example 25, 2-Deuterio-5-[(2S,6R)-6-methyl-11-[(3S)-pyrrolidin-3-yl]oxy-4,7,10-triazatricyclo[7.4.0.02,7]trideca-1(9),10,12-trien-4-yl]quinoline-8-carbonitrile]
< 300 pM		C[C@@H]1CN(c2ccc(C#N)c3ncccc23)C[C@@H]2c3ccc(N4CCCNCC4)nc3CN12 [Example 20, 5-[(2S,6R)-11-(1,4-diazepan-1-yl)-6-methyl-4,7,10-triazatricyclo[7.4.0.02,7]trideca-1(9),10,12-trien-4-yl]quinoline-8-carbonitrile]
< 300 pM		[2H]c1ccc2c(N3C[C@@H](C)N4Cc5nc(N6CCC7(CC6)CNCCO7)ccc5[C@H]4C3)ccc(C#N)c2n1 [Example 18, 2-Deuterio-5-[(2S,6R)-6-methyl-11-(1-oxa-4,9-diazaspiro[5.5]undecan-9-yl)-4,7,10-triazatricyclo[7.4.0.02,7]trideca-1(9),10,12-trien-4-yl]quinoline-8-carbonitrile]
< 300 pM		[2H]c1ccc2c(N3C[C@@H](C)N4Cc5nc(N6CCC(C)(N)CC6)ccc5[C@H]4C3)ccc(C#N)c2n1 [Example 19, 5-[(2S,6R)-11-(4-amino-4-methyl-1-piperidyl)-6-methyl-4,7,10-triazatricyclo[7.4.0.02,7]trideca-1(9),10,12-trien-4-yl]-2-deuterio-quinoline-8-carbonitrile]
